Our source for the TGI values is PubChem BioAssay (NCI).

Molecules are shown by their SMILES.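 Step 1: Grow cells in 96-well plates. Step 2: Expose to compound for 48 hours at 5 concentrations. Step 3: Interpolate endpoints linearly; if unreached, use highest concentration. TGI is the concentration that stops growth completely.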

Test systems include UO-31 renal; NCI-H460 lung; PC-3 prostate; MCF7 breast; UACC-62 melanoma; UACC-257 melanoma; SK-OV-3 ovarian; NCI/ADR-RES ovarian; HCT-15 colon; T-47D breast; 786-0 renal; MDA-MB-435; NCI-H522 lung; KM12 colon; HT29 colon; A498 renal; SNB-19 CNS; DU-145 prostate; MOLT-4 leukemia; OVCAR-3 ovarian.
Common to all, as to test: NCI-60 cell line screen, 48 h

As for `NC(=O)C(=CNC(=S)Nc1ccc(S(=O)(=O)Nc2ccccn2)cc1)C(N)=O`, the TGI with UO-31 renal, with NCI-H460 lung, with PC-3 prostate, in the experiment with MCF7 breast, with UACC-62 melanoma and with UACC-257 melanoma was > 100 µM each time. Further, the TGI in the experiment on SK-OV-3 ovarian, in the experiment with NCI/ADR-RES ovarian, with HCT-15 colon, in the experiment on T-47D breast, in the experiment with 786-0 renal and in the experiment on MDA-MB-435 was > 100 µM in each case. Moreover, the TGI with NCI-H522 lung, in the experiment with KM12 colon, in the experiment on HT29 colon, in the experiment with A498 renal, in the experiment with SNB-19 CNS and with DU-145 prostate was > 100 µM in each case. In addition, the values for the TGI with MOLT-4 leukemia and in the experiment on OVCAR-3 ovarian were 5.76 µM and > 100 µM, respectively.

Turning to `Oc1cnc2c(O)cccc2c1`, the TGI is > 100 µM in the experiment with UO-31 renal; > 100 µM in the experiment with NCI-H460 lung; > 100 µM in the experiment with PC-3 prostate; > 100 µM in the experiment with MCF7 breast; 62.3 µM in the experiment on UACC-62 melanoma; > 100 µM in the experiment on UACC-257 melanoma. The TGI with SK-OV-3 ovarian was > 100 µM; with NCI/ADR-RES ovarian, 66.5 µM; with HCT-15 colon, > 100 µM; in the experiment with T-47D breast, 91.6 µM; with 786-0 renal it was > 100 µM; with MDA-MB-435 it was > 100 µM. The TGI in the experiment with NCI-H522 lung, in the experiment on KM12 colon, in the experiment with HT29 colon, with A498 renal, in the experiment with SNB-19 CNS and in the experiment with DU-145 prostate was > 100 µM in each case. Also, the results for the TGI with MOLT-4 leukemia and in the experiment with OVCAR-3 ovarian were > 100 µM and 65 µM, respectively.

For `CC(C)[Si]1(C(C)C)OCC2OC(n3c(C(=O)c4ccccc4)cc(=O)[nH]c3=O)CC2O[Si](C(C)C)(C(C)C)O1` (stereo not given), the TGI is 6.98 µM in the experiment on UO-31 renal; 15.9 µM in the experiment with NCI-H460 lung; 6.22 µM in the experiment with PC-3 prostate; 8.14 µM with MCF7 breast; 7.62 µM with UACC-62 melanoma; 6.04 µM in the experiment with UACC-257 melanoma. The TGI in the experiment on SK-OV-3 ovarian was found to be 27.2 µM; in the experiment on NCI/ADR-RES ovarian it was 26.8 µM; with HCT-15 colon, 7.89 µM; in the experiment with T-47D breast, 16 µM; in the experiment on 786-0 renal, 9.87 µM; in the experiment on MDA-MB-435, 10.4 µM. In addition, the TGI with NCI-H522 lung is 3.55 µM; with KM12 colon, 8.51 µM; with HT29 colon, 4.22 µM; in the experiment with A498 renal it was 24.8 µM; with SNB-19 CNS, 22.4 µM; with DU-145 prostate, 24.6 µM. Also, the TGI with MOLT-4 leukemia was determined as 4.76 µM; in the experiment on OVCAR-3 ovarian it was 5.09 µM.

With `N#Cc1ncn(CCO)c1N`, the TGI in the experiment with UO-31 renal, in the experiment with NCI-H460 lung, with PC-3 prostate, in the experiment on MCF7 breast, with UACC-62 melanoma and in the experiment with UACC-257 melanoma was > 100 µM throughout. Moreover, the TGI in the experiment on SK-OV-3 ovarian, with NCI/ADR-RES ovarian, in the experiment on HCT-15 colon, in the experiment with T-47D breast, in the experiment with 786-0 renal and in the experiment with MDA-MB-435 was > 100 µM throughout. For the same compound, the TGI with NCI-H522 lung, with KM12 colon, with HT29 colon, with A498 renal, with SNB-19 CNS and in the experiment on DU-145 prostate was > 100 µM each time. The TGI in the experiment with MOLT-4 leukemia and in the experiment with OVCAR-3 ovarian was > 100 µM throughout.

On to `Cc1nc(C)c(N2CCN(C(=O)O)CC2)c(=O)[nH]1`, for which the TGI with UO-31 renal, in the experiment on NCI-H460 lung, in the experiment with PC-3 prostate, with MCF7 breast, with UACC-62 melanoma and with UACC-257 melanoma was > 100 µM throughout. Also, the TGI with SK-OV-3 ovarian, in the experiment on NCI/ADR-RES ovarian, in the experiment on HCT-15 colon, in the experiment with T-47D breast, in the experiment on 786-0 renal and in the experiment on MDA-MB-435 was > 100 µM throughout. The TGI with NCI-H522 lung, in the experiment on KM12 colon, with HT29 colon, with A498 renal, with SNB-19 CNS and in the experiment on DU-145 prostate was > 100 µM throughout. Also, the TGI in the experiment on MOLT-4 leukemia and in the experiment on OVCAR-3 ovarian was > 100 µM throughout.

On to `CC(C)CC(NP(=O)(O)OC1OC(C)C(O)C(O)C1O)C(=O)NC(Cc1c[nH]c2ccccc12)C(=O)O` (stereo not given), for which the TGI in the experiment on UO-31 renal, in the experiment on NCI-H460 lung, in the experiment with PC-3 prostate, with MCF7 breast, in the experiment with UACC-62 melanoma and with UACC-257 melanoma was > 100 µM each time. Also, the TGI in the experiment with SK-OV-3 ovarian, in the experiment on NCI/ADR-RES ovarian, in the experiment with HCT-15 colon, with T-47D breast, in the experiment on 786-0 renal and with MDA-MB-435 was > 100 µM each time. For the same compound, the TGI in the experiment on NCI-H522 lung, in the experiment on KM12 colon, with HT29 colon, with A498 renal, in the experiment on SNB-19 CNS and in the experiment with DU-145 prostate was > 100 µM in each case. In addition, the TGI in the experiment with MOLT-4 leukemia and with OVCAR-3 ovarian was > 100 µM in each case.

Turning to `OC(Cc1ccc2ccccc2n1)(C(F)(F)Cl)C(F)(F)Cl`, the TGI with UO-31 renal, with NCI-H460 lung, with PC-3 prostate, with MCF7 breast, in the experiment with UACC-62 melanoma and in the experiment with UACC-257 melanoma was > 10 µM each time. Also, the TGI with SK-OV-3 ovarian, with NCI/ADR-RES ovarian, in the experiment with HCT-15 colon, with T-47D breast, with 786-0 renal and in the experiment with MDA-MB-435 was > 10 µM in each case. In addition, the TGI with NCI-H522 lung, in the experiment with KM12 colon, in the experiment on HT29 colon, with A498 renal, in the experiment on SNB-19 CNS and with DU-145 prostate was > 10 µM each time. For the same compound, the TGI in the experiment with MOLT-4 leukemia and in the experiment on OVCAR-3 ovarian was > 10 µM throughout.
